Columns and labels:
Assay in all cases: relative viability (nuclei count vs DMSO), 5 days (fraction); higher = more cells survive
Pemetrexed + Decitabine = compound: Nc1nc2[nH]cc(CCc3ccc(C(=O)N[C@@H](CCC(=O)O)C(=O)O)cc3)c2c(=O)[nH]1 [Pemetrexed] + Nc1ncn([C@H]2C[C@H](O)[C@@H](CO)O2)c(=O)n1 [Decitabine] (partner 2 µM)
In short: (§1)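 Relative viability divides the nuclei count in treated wells by that in vehicle wells. Lung cancer cell lines were seeded in 1536-well plates, dosed by pin tool the next day, and fixed and stained after 5 days in one step with final 0.05% Triton X-100, 1% formaldehyde and 1 ug/ml Hoechst. Dosing was a single drug or a fixed anchor-drug dose plus five library-drug doses (not always all listed) in √10 steps, and values are medians of duplicate plates imaged at 4×.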

Pemetrexed + Lapatinib = compound: Nc1nc2[nH]cc(CCc3ccc(C(=O)N[C@@H](CCC(=O)O)C(=O)O)cc3)c2c(=O)[nH]1 [Pemetrexed] + CS(=O)(=O)CCNCc1ccc(-c2ccc3ncnc(Nc4ccc(OCc5cccc(F)c5)c(Cl)c4)c3c2)o1 [Lapatinib] (partner 2 µM)
In short: as §1

Idelalisib + Palbociclib = compound: CC[C@H](Nc1ncnc2[nH]cnc12)c1nc2cccc(F)c2c(=O)n1-c1ccccc1 [Idelalisib] + CC(=O)c1c(C)c2cnc(Nc3ccc(N4CCNCC4)cn3)nc2n(C2CCCC2)c1=O [Palbociclib] (partner 0.5 µM)
In short: as §1

Idelalisib + Pemetrexed = compound: CC[C@H](Nc1ncnc2[nH]cnc12)c1nc2cccc(F)c2c(=O)n1-c1ccccc1 [Idelalisib] + Nc1nc2[nH]cc(CCc3ccc(C(=O)N[C@@H](CCC(=O)O)C(=O)O)cc3)c2c(=O)[nH]1 [Pemetrexed] (partner 0.2 µM)
In short: as §1

Cell Line: UMC-11
- relative viability (Pemetrexed + Decitabine; first compound 0.002 µM): 0.849
- relative viability (Pemetrexed + Decitabine; first compound 0.006325 µM): 0.63
- relative viability (Pemetrexed + Decitabine; first compound 0.02 µM): 0.595
- relative viability (Pemetrexed + Decitabine; first compound 0.06325 µM): 0.58
- relative viability (Pemetrexed + Decitabine; first compound 0.2 µM): 0.7
- relative viability (Pemetrexed + Lapatinib; first compound 0.002 µM): 1.24
- relative viability (Pemetrexed + Lapatinib; first compound 0.006325 µM): 0.952
- relative viability (Pemetrexed + Lapatinib; first compound 0.02 µM): 1.11
- relative viability (Pemetrexed + Lapatinib; first compound 0.06325 µM): 1.05
- relative viability (Pemetrexed + Lapatinib; first compound 0.2 µM): 0.746
- relative viability (Idelalisib + Palbociclib; first compound 0.04 µM): 0.335
- relative viability (Idelalisib + Palbociclib; first compound 0.1265 µM): 0.33
- relative viability (Idelalisib + Palbociclib; first compound 0.4 µM): 0.298
- relative viability (Idelalisib + Palbociclib; first compound 1.265 µM): 0.298
- relative viability (Idelalisib + Palbociclib; first compound 4 µM): 0.261
- relative viability (Idelalisib + Pemetrexed; first compound 0.04 µM): 0.673
- relative viability (Idelalisib + Pemetrexed; first compound 0.1265 µM): 0.77
- relative viability (Idelalisib + Pemetrexed; first compound 0.4 µM): 0.793
- relative viability (Idelalisib + Pemetrexed; first compound 1.265 µM): 0.839
- relative viability (Idelalisib + Pemetrexed; first compound 4 µM): 0.936

From the supplement of paper PMC10307832
